Assay [1] concerns DNA. In words: Binding affinity to calf thymus DNA at pH 7.0 at 20 uM by thermal denaturation assay. The conditions noted are these: Bos taurus. The format is nucleic-acid assay.
Assay [2] relates to DNA. The assay is described as follows: Binding affinity to calf thymus DNA at pH 7.0 at 20 uM after 18 hrs by thermal denaturation assay. Format: nucleic-acid assay. The conditions noted are these: Bos taurus.
Another assay deals with L1210. In words: Cytotoxicity against mouse L1210 cells. The conditions noted are these: read-out: LC50 (the source's name). Format: functional.
The test system of another assay is PC-6. In words: Cytotoxicity against human PC6 cells. Format: functional. The conditions noted are these: read-out: LD50 (the source's name).
For a further assay, the system named is CCRF-CEM. The assay is described as follows: Growth inhibition of human CCRF-CEM cells. Format: functional.
In another assay the test system is HL-60. The assay is described as follows: Growth inhibition of human HL60(TB) cells. Format: functional.
The subject of a further assay is K562. In words: Growth inhibition of human K562 cells. The format is functional.
The next assay has as its system MOLT-4. In words: Growth inhibition of human MOLT4 cells. The format is functional.
In another assay the test system is RPMI-8226. In words: Growth inhibition of human RPMI8226 cells. Format: functional.
A further assay deals with SR. The assay is described as follows: Growth inhibition of human SR cells. The format is functional.
The test system of the next assay is A549. The assay is described as follows: Growth inhibition of human A549 cells. The format is functional.
The test system of the next assay is EKVX. In words: Growth inhibition of human EKVX cells. The format is functional.
In a further assay the test system is HOP-62. In words: Growth inhibition of human HOP62 cells. Format: functional.
The test system of another assay is NCI-H322M. The assay is described as follows: Growth inhibition of human NCI-H322M cells. Format: functional.
The subject of the next assay is NCI-H460. In words: Growth inhibition of human NCI-H460 cells. The format is functional.
A further assay concerns NCI-H522. The assay is described as follows: Growth inhibition of human NCI-H522 cells. The format is functional.
The next assay has as its system COLO 205. The assay is described as follows: Growth inhibition of human COLO 205 cells. The format is functional.
A further assay relates to HCC 2998. The assay is described as follows: Growth inhibition of human HCC2998 cells. Format: functional.
The next assay deals with HCT-116. The assay is described as follows: Growth inhibition of human HCT116 cells. The format is functional.
Another assay deals with HCT-15. The assay is described as follows: Growth inhibition of human HCT15 cells. The format is functional.
A further assay deals with HT-29. In words: Growth inhibition of human HT29 cells. The format is functional.
The next assay relates to KM12. The assay is described as follows: Growth inhibition of human KM12 cells. The format is functional.
In the next assay the test system is SW-620. The assay is described as follows: Growth inhibition of human SW620 cells. The format is functional.
The subject of a further assay is SF-268. The assay is described as follows: Growth inhibition of human SF268 cells. Format: functional.
The next assay concerns SF-539. In words: Growth inhibition of human SF539 cells. Format: functional.
In the next assay the test system is SNB-19. In words: Growth inhibition of human SNB19 cells. Format: functional.
The subject of the next assay is SNB-75. The assay is described as follows: Growth inhibition of human SNB75 cells. The format is functional.
A further assay deals with U-251. The assay is described as follows: Growth inhibition of human U251 cells. Format: functional.
A further assay deals with LOX IMVI. The assay is described as follows: Growth inhibition of human LOX IMVI cells. The format is functional.
The subject of another assay is Malme-3M. The assay is described as follows: Growth inhibition of human MALME-3M cells. The format is functional.
In the next assay the test system is M14. In words: Growth inhibition of human M14 cells. The format is functional.
For another assay, the system named is SK-MEL-2. In words: Growth inhibition of human SK-MEL-2 cells. The format is functional.
The next assay has as its system SK-MEL-28. The assay is described as follows: Growth inhibition of human SK-MEL-28 cells. Format: functional.
Another assay deals with SK-MEL-5. In words: Growth inhibition of human SK-MEL-5 cells. The format is functional.
The subject of a further assay is UACC-257. In words: Growth inhibition of human UACC257 cells. Format: functional.
In another assay the test system is UACC-62. The assay is described as follows: Growth inhibition of human UACC62 cells. Format: functional.
The subject of another assay is IGROV-1. The assay is described as follows: Growth inhibition of human IGROV1 cells. The format is functional.
In another assay the test system is OVCAR-3. In words: Growth inhibition of human OVCAR-3 cells. Format: functional.
The next assay has as its system OVCAR-4. In words: Growth inhibition of human OVCAR4 cells. The format is functional.
For a further assay, the system named is OVCAR-5. The assay is described as follows: Growth inhibition of human OVCAR5 cells. Format: functional.
A further assay relates to OVCAR-8. The assay is described as follows: Growth inhibition of human OVCAR8 cells. Format: functional.
The subject of the next assay is SK-OV-3. In words: Growth inhibition of human SK-OV-3 cells. The format is functional.
A further assay deals with 786-0. The assay is described as follows: Growth inhibition of human 786-0 cells. Format: functional.
For the next assay, the system named is ACHN. The assay is described as follows: Growth inhibition of human ACHN cells. The format is functional.
For another assay, the system named is CAKI-1. The assay is described as follows: Growth inhibition of human CAKI1 cells. The format is functional.
The next assay has as its system RXF 393. The assay is described as follows: Growth inhibition of human RXF 393 cells. The format is functional.
For another assay, the system named is SN12C. The assay is described as follows: Growth inhibition of human SN12C cells. The format is functional.
For a further assay, the system named is TK-10. The assay is described as follows: Growth inhibition of human TK10 cells. Format: functional.
For the next assay, the system named is UO-31. In words: Growth inhibition of human UO31 cells. The format is functional.
Assay [3] can be described thus: Growth inhibition of human HS 578T cells. The format is functional.
The next assay deals with DU-145. The assay is described as follows: Growth inhibition of human DU145 cells. Format: functional.
Another assay deals with MCF7. In words: Growth inhibition of human MCF7 cells. Format: functional.
For another assay, the system named is NCI/ADR-RES. The assay is described as follows: Growth inhibition of human NCI/ADR-RES cells. Format: functional.
A short description of assay [4]: Growth inhibition of human 231/ATCC cells. Format: functional.
The subject of a further assay is MDA-MB-435. The assay is described as follows: Growth inhibition of human MDA-MB-435 cells. Format: functional.
The test system of another assay is BT-549. The assay is described as follows: Growth inhibition of human BT549 cells. The format is functional.
For the next assay, the system named is T47D. The assay is described as follows: Growth inhibition of human T47D cells. Format: functional.
In a further assay the test system is MDA-MB-468. The assay is described as follows: Growth inhibition of human MDA-MB-468 cells. Format: functional.
The test system of the next assay is HOP-92. The assay is described as follows: Growth inhibition of human HOP92 cells. The format is functional.
For the next assay, the system named is NCI-H226. In words: Growth inhibition of human NCI-H226 cells. Format: functional.
The test system of a further assay is NCI-H23. In words: Growth inhibition of human NCI-H23 cells. The format is functional.

SMILES strings stand for the structures.

Broadly, the GI50 is the concentration giving 50% growth inhibition. Higher therefore signals less potent growth inhibition.

For the compound `COc1cc2c(cc1O)N=C[C@@H]1CCCN1C2=O`, the deltaTm in the assay with DNA [1] was 0.3 °C; in the assay with DNA [2], 0.7 °C. In addition, the CC50 was 380 nM with L1210 and 330 nM in the assay on PC-6.

Regarding `COc1cc(/C=C/C(=O)c2ccccc2O)ccc1OCCCCOc1cc2c(cc1OC)C(=O)N1CCC[C@H]1C=N2`, the deltaTm with DNA [1] was 1.7 °C; with DNA [2], 2.1 °C.

With `COc1cc(/C=C/C(=O)c2ccccc2O)ccc1OCCCCOc1cc2c(cc1OC)C(=O)N1CCC[C@H]1C(=O)N2`, the figures for the deltaTm with DNA [1] and in the assay with DNA [2] were 1 °C and 1.9 °C, respectively.

As to `COc1cc(/C=C/C(=O)c2ccccc2O)ccc1OCCCOc1cc2c(cc1OC)C(=O)N1CCC[C@H]1C(=O)N2`, the deltaTm with DNA [1] worked out at 2 °C; in the assay with DNA [2] it was 3.5 °C.

Turning to `COc1cc(/C=C/C(=O)c2ccccc2O)ccc1OCCCCCOc1cc2c(cc1OC)C(=O)N1CCC[C@H]1C(=O)N2`, the deltaTm with DNA [1] turned out to be 7.1 °C; in the assay with DNA [2] it was 9 °C.

For the compound `COc1cc(/C=C/C(=O)c2ccccc2O)ccc1OCCCOc1cc2c(cc1OC)C(=O)N1CCC[C@H]1C=N2`, the deltaTm was found to be 5 °C in the assay on DNA [1] and 8.1 °C with DNA [2]. The GI50 with CCRF-CEM was 21 nM; in the assay with HL-60, 17 nM; with K562 it was 26 nM; in the assay with MOLT-4 it was 17 nM; with RPMI-8226, 25 nM; in the assay on SR, 12 nM. In addition, the GI50 with A549 is 31 nM; in the assay with EKVX, 204 nM; in the assay with HOP-62, 39 nM; in the assay on NCI-H322M, 307 nM; in the assay on NCI-H460, 34 nM; in the assay on NCI-H522, 26 nM. For the same compound, the GI50 was 27 nM in the assay on COLO 205; 138 nM with HCC 2998; 33 nM in the assay with HCT-116; 247 nM in the assay on HCT-15; 30 nM in the assay with HT-29; 18 nM with KM12. The GI50 in the assay on SW-620 came to 19 nM; with SF-268, 24 nM; in the assay with SF-539, 28 nM; in the assay on SNB-19, 29 nM; in the assay on SNB-75, 36 nM; with U-251, 22 nM. In addition, the GI50 in the assay with LOX IMVI came to 18 nM; in the assay with Malme-3M, 37 nM; in the assay with M14 it was 46 nM; in the assay on SK-MEL-2, 67 nM; with SK-MEL-28, 20 nM; in the assay with SK-MEL-5, 24 nM. For the same compound, the GI50 in the assay on UACC-257 worked out at 112 nM; in the assay on UACC-62 it was 21 nM; with IGROV-1, 18 nM; in the assay on OVCAR-3, 21 nM; with OVCAR-4 it was 61 nM; with OVCAR-5, 25 nM. Further, the GI50 was 36 nM with OVCAR-8; 406 nM in the assay with SK-OV-3; 25 nM in the assay with 786-0; 47 nM in the assay on ACHN; 25 nM with CAKI-1; 20 nM with RXF 393. The GI50 came out at 28 nM in the assay on SN12C; 41 nM in the assay with TK-10; 105 nM with UO-31; 23 nM in [3]; 25 nM in the assay with DU-145; 32 nM with MCF7. The GI50 is 308 nM with NCI/ADR-RES; 26 nM in assay [4]; 19 nM with MDA-MB-435; 17 nM in the assay with BT-549; 29 nM in the assay on T47D; 16 nM in the assay on MDA-MB-468. In addition, the figures for the GI50 with HOP-92, with NCI-H226 and in the assay with NCI-H23 were 44 nM, 138 nM and 39 nM, respectively.

Consider `COc1cc(/C=C/C(=O)c2ccccc2O)ccc1OCCCCCOc1cc2c(cc1OC)C(=O)N1CCC[C@H]1C=N2`, for which the deltaTm in the assay on DNA [1] was determined as 3.1 °C; in the assay on DNA [2], 5 °C.

(Values after ChEMBL document CHEMBL1144686, “Solid-phase synthesis of new pyrrolobenzodiazepine-chalcone conjugates: DNA-binding affinity and anticancer activity” (2008).)
